From PubChem BioAssay (NCI)
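Each compound was tested at five concentrations against cells in 96-well plates for 48 hours. GI50: concentration for 50% inhibition of growth. TGI denotes the concentration required for complete inhibition of growth.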

Key:
Test in all cases: growth of human tumour cells (NCI), 48 h
[1] = test system: NCI/ADR-RES ovarian
[2] = test system: SNB-75 CNS
[3] = test system: HCT-116 colon
[4] = test system: COLO 205 colon
[5] = test system: LOX IMVI melanoma
[6] = test system: HT29 colon
[7] = test system: MOLT-4 leukemia
[8] = test system: SF-539 CNS
[9] = test system: NCI-H522 lung
[10] = test system: U251 CNS
[11] = test system: SR leukemia
[12] = test system: OVCAR-8 ovarian
[13] = test system: SK-MEL-28 melanoma
[14] = test system: NCI-H460 lung
[15] = test system: OVCAR-4 ovarian
[16] = test system: RXF 393 renal
[17] = test system: EKVX NSCLC
[18] = test system: KM12 colon
[19] = test system: HS 578T breast
[20] = test system: NCI-H23 lung
[21] = test system: SN12C renal
[22] = test system: OVCAR-3 ovarian
[23] = test system: UACC-62 melanoma
[24] = test system: OVCAR-5 ovarian
[25] = test system: SF-268 CNS
[26] = test system: BT-549 breast
[27] = test system: RPMI-8226 leukemia
[28] = test system: SW-620 colon
[29] = test system: SF-295 CNS
[30] = test system: CAKI-1 renal
[31] = test system: MCF7 breast
[32] = test system: PC-3 prostate
[33] = test system: T-47D breast
[34] = test system: HOP-92 NSCLC
[35] = test system: MALME-3M melanoma
[36] = test system: HOP-62 NSCLC
[37] = test system: ACHN renal
[38] = test system: SK-MEL-5 melanoma
[39] = test system: IGROV1 ovarian
[40] = test system: MDA-MB-231 breast
[41] = test system: MDA-MB-435
[42] = test system: DU-145 prostate
[43] = test system: HCT-15 colon
[44] = test system: A549 NSCLC
[45] = test system: CCRF-CEM leukemia
[46] = test system: A498 renal
[47] = test system: SK-MEL-2 melanoma
[48] = test system: SNB-19 CNS
[49] = test system: HCC-2998 colon
[50] = test system: NCI-H226 lung
[51] = test system: K-562 leukemia
[52] = test system: SK-OV-3 ovarian
[53] = test system: TK-10 renal
[54] = test system: UACC-257 melanoma

Cc1cc2nc(-c3c(N)ncc(C#N)c3-c3ccc(Cl)cc3)[nH]c2cc1C
GI50 [1]: 15.7 µM | TGI [1]: > 100 µM | GI50 [2]: 12.9 µM | TGI [2]: 32.4 µM | GI50 [3]: 3.47 µM | TGI [3]: 19.7 µM | GI50 [4]: 6.24 µM | TGI [4]: 83.4 µM | GI50 [5]: 5.83 µM | TGI [5]: 26 µM | GI50 [6]: 6.06 µM | TGI [6]: > 100 µM | GI50 [7]: > 100 µM | TGI [7]: > 100 µM | GI50 [8]: 2.07 µM | TGI [8]: 5.78 µM | GI50 [9]: 4.07 µM | TGI [9]: 27.9 µM | GI50 [10]: 5.48 µM | TGI [10]: 21.4 µM | GI50 [11]: 28.7 µM | TGI [11]: > 100 µM | GI50 [12]: 4.53 µM | TGI [12]: 29.6 µM | GI50 [13]: 5.8 µM | TGI [13]: 40.2 µM | GI50 [14]: 30.4 µM | TGI [14]: > 100 µM | GI50 [15]: 4.4 µM | TGI [15]: 25.4 µM | GI50 [16]: 3.18 µM | TGI [16]: 13.7 µM | GI50 [17]: 14.4 µM | TGI [17]: 76.7 µM | GI50 [18]: 14.8 µM | TGI [18]: > 100 µM | GI50 [19]: 12 µM | TGI [19]: > 100 µM | GI50 [20]: 8.1 µM | TGI [20]: 30.7 µM | GI50 [21]: 31 µM | TGI [21]: > 100 µM | GI50 [22]: 13.9 µM | TGI [22]: 76 µM | GI50 [23]: 11 µM | TGI [23]: 53.2 µM | GI50 [24]: 14.7 µM | TGI [24]: > 100 µM | GI50 [25]: 19.8 µM | TGI [25]: 84.2 µM | GI50 [26]: 37.6 µM | TGI [26]: > 100 µM | GI50 [27]: 5.55 µM | TGI [27]: > 100 µM | GI50 [28]: 32.4 µM | TGI [28]: > 100 µM | GI50 [29]: 10 µM | TGI [29]: 27.5 µM | GI50 [30]: 12.1 µM | TGI [30]: > 100 µM | GI50 [31]: 9.34 µM | TGI [31]: > 100 µM | GI50 [32]: 6.59 µM | TGI [32]: 39.3 µM | GI50 [33]: 4.63 µM | TGI [33]: > 100 µM | GI50 [34]: 0.275 µM | TGI [34]: 5.23 µM | GI50 [35]: 14.5 µM | TGI [35]: 78.8 µM | GI50 [36]: 6.36 µM | TGI [36]: 21.7 µM | GI50 [37]: 11.1 µM | TGI [37]: > 100 µM | TGI [38]: 33.4 µM | GI50 [39]: 18.7 µM | TGI [39]: > 100 µM | GI50 [40]: 10.5 µM | TGI [40]: 44.2 µM | GI50 [41]: 26.2 µM | TGI [41]: > 100 µM | GI50 [42]: 5.68 µM | TGI [42]: 27.1 µM | GI50 [43]: 30.6 µM | TGI [43]: > 100 µM | GI50 [44]: 4.17 µM | TGI [44]: 24.9 µM | GI50 [45]: 24.6 µM | TGI [45]: > 100 µM | GI50 [46]: 11.8 µM | TGI [46]: 59.2 µM | GI50 [47]: 20.4 µM | TGI [47]: > 100 µM | GI50 [48]: 19.5 µM | TGI [48]: 75.6 µM | GI50 [49]: 20.9 µM | TGI [49]: > 100 µM | GI50 [50]: 15 µM | TGI [50]: 46.3 µM | GI50 [51]: 31.5 µM | TGI [51]: > 100 µM | GI50 [52]: 11.9 µM | TGI [52]: 27.9 µM | GI50 [53]: 4.67 µM | TGI [53]: 21.3 µM | GI50 [54]: 11.4 µM | TGI [54]: 82.6 µM
